Data from patent publication US20110257108A1, “SYNTHESIS AND ACTIVITY OF LACTOSE ESTERS” (Utah State University, priority 2010, published 2011).

Columns and labels:
[1] = Description: Aliquots, 600 μL, of each filtered sample were dried by a Savant SpeedVac system. The dry sugar in each tube was re-suspended in 600 μL de-ionized water. […] The amount of sugar in each sample was determined by comparing peak areas to the lactose-in-water control.
[2] = tested on: clinical isolates of Listeria monocytogenes; assay: Microbial inhibitory studies with clinical isolates (microtitre well plate method, plate counts); type: cell-based
Description: Referring now to FIGS. 8 through 12, in light of the microbial inhibitory effect shown with Listeria monocytogenese, we obtained clinical isolates of Listeria monocytogenes from the International Life Science Institute Database, Cornell University and tested LM at the same concentrations as listed above with the clinical isolate. Inhibitory effects against clinical isolates of Listeria monocytogenese are shown in FIGS. 8, 9, 10, 11 and 12 (inhibition shown is percent growth inhibition). The clinical isolates are described in Table 5.
Still referring to FIGS. 8 through 12, microbial inhibitory studies were carried out in microtitre well plate method. Cultures were grown in appropriate microbial media with antibiotics and diluted to 10^5 colony forming units (CFU) per mL. Cultures (0.5 mL or 10^2.5 CFU total) were added to microtiter wells and an initial optical density (OD) at 600 nm was recorded. The studies were conducted by adding different concentrations of LML as described above with appropriate controls (media only, media plus cells, media plus cells and 0.1% Polysorbate 80, same amount of ethanol as in the vol of LML plus 0.1% polysorbate 80 with cells). Plate counts of all controls and treatments were done. For each strain and treatment, the experiments were done 6 times and replicated at least once. Data shown has a coefficient of variation of less than 10%. […]

[3] = tested on: Salmonella typhimurium (ATCC 700720); assay: Microbial growth inhibition (microtiter OD 600 nm, 48 hours); type: cell-based; conditions: gram negative; LML 0.001 to 0.1%; FIG. 7
Description: (§1) Referring now to FIG. 7 and Table 4, the microbial inhibitory characteristics of LML synthesized and purified as described above, were investigated against Enterococcus faecalis (ATCC 700802), Listeria monocytogenes, Staphyloccus suis, Escherichia coli H7P:0157H7 (ATCC 35150), Salmonella typhimurium (ATCC 700720) and Klebsiella pneumoniae (ATCC 700721). Cultures were grown in appropriate microbial media with antibiotics and diluted to 10^5 colony forming units (CFU) per mL. Cultures (0.5 mL or 10^2.5 CFU total) were added to microtiter wells and an initial optical density (OD) at 600 nm was recorded. For treatments, LML in concentrations ranging from 0.001 to 0.1% was added to individual microtiter wells and the OD was again measured after 48 hours. Controls were treated similarly, but without the addition of LML. Percent growth inhibition was determined by comparing the OD reading for the controls and treatments.

[4] = tested on: Enterococcus faecalis (ATCC 700802); assay: as above; type: cell-based; conditions: gram positive, FIG. 7
Description: as §1

[5] = tested on: Listeria monocytogenes; assay: as above; type: cell-based; conditions: gram positive, FIG. 7
Description: as §1

[6] = tested on: Staphyloccus suis; assay: as above; type: cell-based; conditions: gram positive, FIG. 7
Description: as §1

[7] = tested on: Klebsiella pneumoniae (ATCC 700721); assay: as above; type: cell-based; conditions: gram negative; LML 0.001 to 0.1%; FIG. 7
Description: as §1

[8] = tested on: Escherichia coli H7P:0157H7 (ATCC 35150); assay: as above; type: cell-based; conditions: gram negative; LML 0.001 to 0.1%; FIG. 7
Description: as §1

| Compound | solubility in 2M2B [1] | solubility in the other solvents [1] | percent growth inhibition ([2]; LML 1.0 mg/mL, each strain (J1-177, C1-056, N3-013, R2-499, N1-227), with 0.1% Polysorbate 80, versus control with ethanol and tween) | type of inhibition (plate counts) ([2]; plate counts of treatments compared to the controls) | susceptibility to inhibition [3] | growth inhibition ([4]; LML 0.005% and less) | growth inhibition ([4]; LML 0.1% (1 mg/mL)) | growth inhibition ([5]; LML 0.005% and less) | growth inhibition ([5]; LML 0.1% (1 mg/mL)) | growth inhibition ([6]; LML 0.005% and less) | growth inhibition ([6]; LML 0.1% (1 mg/mL)) | susceptibility to inhibition [7] | susceptibility to inhibition [8] |
| --- | --- | --- | --- | --- | --- | --- | --- | --- | --- | --- | --- | --- | --- |
| OC[C@H]1O[C@@](CO)(O[C@H]2O[C@H](CO)[C@@H](O)[C@H](O)[C@H]2O)[C@@H](O)[C@@H]1O [sucrose] | 700-800 micromol/L solvent | 50-200 micromol/L solvent | – | – | – | – | – | – | – | – | – | – | – |
| lactose monolaurate [LML] | – | – | 70-90% | bacterial static | minimal susceptibility | limited inhibition | inhibited | limited inhibition | inhibited | limited inhibition | inhibited | minimal susceptibility | minimal susceptibility |
